Data: publication PMC8910432 (International Journal of Molecular Sciences, 2022)
Read-outs that look alike come from different tables or passages of the source.

Tests used:
3CLpro [1] = molecular target: T1, 3CLpro (Severe acute respiratory syndrome coronavirus 2, UniProt P0DTD1); settings: cited from earlier work; for IC50: read-out: IC50 3CLpro
[2] = parameters: method as in PMID 12111394, PMID 16526653; settings: ref 38, 39; cited from earlier work
3CLpro [3] = molecular target: T1, 3CLpro; test: biochemical; settings: SPR, 1:1 binding model; read-out: KD TA/3CLpro
3CLpro [4] = molecular target: T1, 3CLpro; settings: FRET-based assay; cited from earlier work
3CLpro [5] = molecular target: T1, 3CLpro; format: binding; settings: TA 10 to 500 µM, 30 min
SARS-CoV-2 3CLpro = SARS-CoV-2 3CLpro (Severe acute respiratory syndrome coronavirus 2, UniProt P0DTD1); test: biochemical; format: biochemical; settings: for concentration from which inhibitory effect on 3CLpro activity is significant: tested 0.1 to 100 µM
3CLpro [6] = molecular target: T1, 3CLpro; settings: cited from earlier work; for binding free energy of 3CLpro: ref 66
mice = settings: even at high dosages; cited from earlier work

## O=C(O[C@H]1Cc2c(O)cc(O)cc2OC1c1cc(O)c(O)c2c(=O)c(O)cc(C3Oc4cc(O)cc(O)c4C[C@H]3O)cc12)c1cc(O)c(O)c(O)c1 (stereo partly drawn) [3-isotheaflavin-3-gallate, reference compound]
3CLpro [1]
  IC50: 7000 nM

## O=C(OC[C@H]1OC(OC(=O)c2cc(O)c(O)c(OC(=O)c3cc(O)c(O)c(O)c3)c2)[C@H](OC(=O)c2cc(O)c(O)c(OC(=O)c3cc(O)c(O)c(O)c3)c2)[C@@H](OC(=O)c2cc(O)c(O)c(OC(=O)c3cc(O)c(O)c(O)c3)c2)[C@@H]1OC(=O)c1cc(O)c(O)c(OC(=O)c2cc(O)c(O)c(O)c2)c1)c1cc(O)c(O)c(OC(=O)c2cc(O)c(O)c(O)c2)c1 (stereo partly drawn) [TA, 1,2,3,4,6-penta-O-{3,4-dihydroxy-5-((3,4,5-trihydroxybenzoyl)oxy)benzoyl}-D-glucopyranose]
[2]
  solubility in water: highly soluble
3CLpro [1]; lower end of literature range
  IC50: 2100 nM
3CLpro [1]
  IC50: 3000 nM
3CLpro [1]; ref 35, 36, 37
  inhibition of 3CLpro activity: 100%
3CLpro [1]; upper end of literature range
  IC50: 9000 nM
3CLpro [3]
  Kd: 57.5 nM
3CLpro [4]
  IC50: 13400 nM
3CLpro [5]
  TA adsorption onto 3CLpro (QCMD): TA adsorption is observed to increase with higher TA concentrations
SARS-CoV-2 3CLpro; at 10 µM
  reduction of 3CLpro activity: up to 95%
SARS-CoV-2 3CLpro; this study
  IC50: 1000 nM

## O=C(OC[C@H]1O[C@@H](OC(=O)c2cc(O)c(O)c(O)c2)[C@H](O)[C@@H](OC(=O)c2cc(O)c(O)c(O)c2)[C@@H]1O)c1cc(O)c(O)c(O)c1 [TGG, 1,3,6-tri-O-galloyl-β-D-glucose]
SARS-CoV-2 3CLpro
  concentration from which inhibitory effect on 3CLpro activity is significant: ≥ 50 µM

## COc1ccc(-c2cc(=O)c3c(O)cc(O[C@@H]4O[C@H](CO[C@@H]5O[C@@H](C)[C@H](O)[C@@H](O)[C@H]5O)[C@@H](O)[C@H](O)[C@H]4O)cc3o2)cc1 [acaciin]
3CLpro [6]; ref 67
  free energy of the 3CLpro complex: -27.61 kcal/mol

## O=c1cc(-c2ccc(O)c(-c3c(O)cc(O)c4c(=O)cc(-c5ccc(O)cc5)oc34)c2)oc2cc(O)cc(O)c12 [amentoflavone]
3CLpro [6]
  binding free energy of 3CLpro: -32.14 ± 4.73 kcal/mol

## O=C(O[C@@H]1O[C@@H]2COC(=O)c3cc(O)c(O)c(O)c3-c3c(cc(O)c(O)c3O)C(=O)O[C@H]([C@H]1O)[C@@H]2O)c1cc(O)c(O)c(O)c1 [corilagin, β-1-O-galloyl-3,6-(R)-hexahydroxydiphenoyl-D-glucose]
3CLpro [1]; ref 33
  inhibition of 3CLpro activity: 88%
mice
  toxicity in mice: very low toxicity
SARS-CoV-2 3CLpro
  concentration from which inhibitory effect on 3CLpro activity is significant: ≥ 50 µM

## CCC(CC)COC(=O)[C@H](C)N[P@](=O)(OC[C@H]1O[C@@](C#N)(c2ccc3c(N)ncnn23)[C@H](O)[C@@H]1O)Oc1ccccc1 [remdesivir]
3CLpro [6]
  binding free energy of 3CLpro: -26.67 ± 3.39 kcal/mol

## C[C@@H]1O[C@@H](OC[C@H]2O[C@@H](Oc3c(-c4ccc(O)c(O)c4)oc4cc(O)cc(O)c4c3=O)[C@H](O)[C@@H](O)[C@@H]2O)[C@H](O)[C@H](O)[C@H]1O [rutin]
3CLpro [6]
  binding free energy of 3CLpro: -30.96 ± 5.56 kcal/mol

## (−)-epicatechin-3-O-gallate [ECG]
3CLpro [1]
  IC50: 847 ± 5 nM
3CLpro [6]; ref 33
  MMPBSA binding free energy with 3CLpro: -41.5 ± 5.1 kcal/mol
3CLpro [6]; ref 68
  MMPBSA binding free energy with 3CLpro: -46.03 ± 6.48 kcal/mol

## cyanidin-3-O-glucoside
3CLpro [6]; protomer A
  MMPBSA binding free energy with 3CLpro: -50.8 kcal/mol
3CLpro [6]; protomer B
  MMPBSA binding free energy with 3CLpro: -42.1 kcal/mol
